{"source": "patent US5371186A", "about": "“Synthetic peptides for detoxification of bacterial endotoxins and for the prevention and treatment of septic shock” (priority 1992, dated 1994)", "key": {"[1]": {"test": "Limulus (LAL) test, inhibition of LPS-induced gelation", "format": "biochemical, B. Pertussis", "conditions": "LPS/Pept (w/w) 1; LPS 0.1 μg", "excerpt": "(§1) As a consequence of this high-affinity binding to the Lipid A moiety of endotoxins, most of the synthetic peptide analogs have shown the ability to detoxify endotoxins as evidenced by in vitro as well as in vivo analysis. The in vitro test used, as measure of detoxification, the inhibition of the enzymatic cascade leading to the coagulation of the Lymulus lysate (LAL test) by endotoxin. The LAL test is recognized as the most sensitive and predictive test for the toxic and pyrogenic activity of LPS, since pyrogenicity in vivo is related to the release of the endogenous immune modulators Interleukin-1 (IL-l) and alfa-Tumor necrosis factor (α-TNF), the mediators responsible for the fatalities associated to septic shock. As an in vivo test confirming detoxification of LPS, was then used the Rabbit pyrogen test performed according to the United States Pharmacopeia XXI.\nThe results obtained by the Limulus (LAL) test, shown in Table V, support the data obtained by measuring the Affinity of the peptides of the invention for the Lipid A moiety of LPS in that they were substantially equivalent to Polymyxin \"B\" in the inhibition of LPS activity on Limulus. […] Peptide I was, in fact, the one presenting the non complete structure needed for the mimick of Polymyxin \"B\" as the synthetic peptide analogs II, IV, VI and VII have clearly shown in the previous Table IV. […]"}, "trypsin in human serum": {"system": "trypsin in human serum", "test": "stability towards proteolysis by trypsin in human serum", "format": "in vitro ADME", "procedure": "The effects of trypsin present in human serum on Polymyxin \"B\" and the peptides of invention was determined by combining 10 μl of human serum with 20 μg of the given peptide in 10 μl volume and holding the mixture at a temperature of 37° C. for different intervals of time. At various times, an aliquot of the mixture was processed by HPLC analysis in order to detect the residual amount of the investigated peptide. In Table VI the half-lives time of each peptide investigated are shown as compared to the half-life time of Polymyxin \"B\"."}, "[2]": {"test": "Rabbit pyrogen test of peptide/LPS complexes", "format": "in vivo", "conditions": "rabbits, complex with LPS injected, three hours observation", "excerpt": "as §1\nIn order to verify \"in vivo\" the detoxifying activity of the peptides, we have injected five groups of three rabbits each with the complexes formed by two representative synthetic peptide analogs with LPS. The pyrogenicity test has been executed according to the United States Pharmacopeia (Vol. XXI)/The National formulary (Vol. XVI), Combined Edition, Jan. 1, 1985. As a negative control in the test, the complex formed by Polymyxin \"B\" and LPS was injected. As a positive control free LPS was injected. […]"}, "Salmonella Typhi": {"system": "Salmonella Typhi", "test": "antibiotic activity, zone of inhibition on BHI plates", "format": "cell-based, S. typhi", "conditions": "18 hours", "procedure": "(§2) The following experiments compared the antibiotic activity of Polymyxin \"B\" with various peptides of the invention.\n(§3) The tests were performed on BHI plates with liquid cultures of the test organism to give a lawn. Each peptide was diluted in water and placed on sterile Wathmam 3M disks on the surface of the plate. The plates were dried and incubated at 37° C. The zone of inhibition was measured after 18 hours: […]"}, "Haemophilus influenzae": {"system": "Haemophilus influenzae", "test": "antibiotic activity, zone of inhibition on BHI plates", "format": "cell-based, H. influenzas", "conditions": "18 hours", "procedure": "as §2, §3"}, "Vibrio cholerae": {"system": "Vibrio cholerae", "test": "antibiotic activity, zone of inhibition on BHI plates", "format": "cell-based, V. choleras", "conditions": "18 hours", "procedure": "as §2, §3"}, "[3]": {"system": "spleen cells from unimmunized healthy SJL/J mice", "test": "LPS-induced polyclonal B-cell activation, 3H-thymidine incorporation", "format": "cell-based", "conditions": "LPS 50 μg/ml, LPS alone 22,737, non stimulated 2,449 cpm", "procedure": "Cells were cultured in RPMI medium containing 1.0% normal mouse serum at 37° C. for 3 days. Cultures were pulsed with 1.0 μi/well of 3H-thymidine for 16 hours and harvested for counting on an LS betaplate counter. The results were as follows:\ncpm measured with non stimulated cultures = 2,449."}, "[4]": {"test": "survival of Balb/c mice after endotoxin challenge", "format": "in vivo, mice (Strain Balb/c)", "conditions": "for % survival / Mice surviving: peptides 1 mg/mouse, Polymyxin B 0.1 mg/mouse i.v., 1 mg endotoxin i.p.; for Mice surviving: 20 mice per group", "procedure": "Groups of 20 mice Balb/c have been treated intravenously with the peptides of the invention at the dose of 1 mg/mouse or with 0.1 mg/mouse of Polymyxin B (the highest dose of this drug tolerated in the mouse, when injected alone). Thirty minutes later, mice were challenged by intraperitoneal injection of 1 mg endotoxin from E.C strain 055-B5. Surviving mice were recorded every 24 hours during a seven days-period of observation. Negative controls received an intravenous injection of saline.\nThere were 20 mice per group. Mice surviving at each of the seven 24 hours observation periods are listed. The % survival appears in parenthesis. P expresses the level of statistical significance calculated by \"t-Test\" for each molecule compared to the treatment with saline, considering the total survival rate in each group."}, "[5]": {"test": "highest dose tolerated in the mouse when injected alone", "format": "in vivo", "conditions": "intravenously"}, "[6]": {"conditions": "same species of mice (Swiss Webster); cited from earlier work"}}, "data": [{"substance": "Polymyxin \"B\"", "values": [{"measurement": "LAL TEST", "setting": "[1]", "result": "NEGATIVE"}, {"measurement": "stability in the presence of proteolytic enzymes such as trypsin", "setting": "trypsin in human serum", "result": "stable in the presence of trypsin"}, {"measurement": "Half-Life Time (t/2)", "setting": "trypsin in human serum; human serum, 37° C.", "result": "> 3", "unit": "h"}, {"measurement": "pyrogenicity (temperature increase) of complex with LPS", "setting": "[2]", "result": "did not show either of the two waves of temperature increase"}, {"measurement": "Zone (mm) of inhibition S. typhi", "setting": "Salmonella Typhi; 0.008 μg/ml", "result": 0, "unit": "mm"}, {"measurement": "Zone (mm) of inhibition S. typhi", "setting": "Salmonella Typhi; 0.04 μg/ml", "result": 1, "unit": "mm"}, {"measurement": "Zone (mm) of inhibition S. typhi", "setting": "Salmonella Typhi; 0.2 μg/ml", "result": 2, "unit": "mm"}, {"measurement": "Zone (mm) of inhibition S. typhi", "setting": "Salmonella Typhi; 1.0 μg/ml", "result": 4, "unit": "mm"}, {"measurement": "Zone (mm) of inhibition H. influenzas", "setting": "Haemophilus influenzae; 0.008 μg/ml", "result": 0, "unit": "mm"}, {"measurement": "Zone (mm) of inhibition H. influenzas", "setting": "Haemophilus influenzae; 0.04 μg/ml", "result": 0, "unit": "mm"}, {"measurement": "Zone (mm) of inhibition H. influenzas", "setting": "Haemophilus influenzae; 0.2 μg/ml", "result": 3, "unit": "mm"}, {"measurement": "Zone (mm) of inhibition H. influenzas", "setting": "Haemophilus influenzae; 1.0 μg/ml", "result": 6, "unit": "mm"}, {"measurement": "Zone (mm) of inhibition V. choleras", "setting": "Vibrio cholerae; 0.008 μg/ml", "result": 1, "unit": "mm"}, {"measurement": "Zone (mm) of inhibition V. choleras", "setting": "Vibrio cholerae; 0.04 μg/ml", "result": 2, "unit": "mm"}, {"measurement": "Zone (mm) of inhibition V. choleras", "setting": "Vibrio cholerae; 0.2 μg/ml", "result": 2.5, "unit": "mm"}, {"measurement": "Zone (mm) of inhibition V. choleras", "setting": "Vibrio cholerae; 1.0 μg/ml", "result": 5, "unit": "mm"}, {"measurement": "3H-thymidine incorporation", "setting": "[3]; 12.5 μg/ml", "result": "2,366 cpm"}, {"measurement": "3H-thymidine incorporation", "setting": "[3]; 25 μg/ml", "result": "3,559 cpm"}, {"measurement": "3H-thymidine incorporation", "setting": "[3]; 50 μg/ml", "result": "2,831 cpm"}, {"measurement": "3H-thymidine incorporation", "setting": "[3]; 100 μg/ml", "result": "4,128 cpm"}, {"measurement": "% survival", "setting": "[4]; 24 hs", "result": 90, "unit": "%"}, {"measurement": "Mice surviving", "setting": "[4]; 24 hs", "result": 18}, {"measurement": "% survival", "setting": "[4]; 48 hs", "result": 70, "unit": "%"}, {"measurement": "Mice surviving", "setting": "[4]; 48 hs", "result": 14}, {"measurement": "% survival", "setting": "[4]; 72 hs", "result": 60, "unit": "%"}, {"measurement": "Mice surviving", "setting": "[4]; 72 hs", "result": 12}, {"measurement": "% survival", "setting": "[4]; 96 hs", "result": 0, "unit": "%"}, {"measurement": "Mice surviving", "setting": "[4]; 96 hs", "result": 0}, {"measurement": "% survival", "setting": "[4]; 120 hs", "result": 0, "unit": "%"}, {"measurement": "Mice surviving", "setting": "[4]; 120 hs", "result": 0}, {"measurement": "% survival", "setting": "[4]; 144 hs", "result": 0, "unit": "%"}, {"measurement": "Mice surviving", "setting": "[4]; 144 hs", "result": 0}, {"measurement": "% survival", "setting": "[4]; 168 hs", "result": 0, "unit": "%"}, {"measurement": "Mice surviving", "setting": "[4]; 168 hs", "result": 0}, {"measurement": "safety and efficacy of treatment", "setting": "[4]; Balb/c mice, 1 mg endotoxin challenge", "result": "resulted efficacious only within three days following the endotoxin challenge"}, {"measurement": "highest dose tolerated in the mouse", "setting": "[5]", "result": 0.1, "unit": "mg/mouse"}, {"measurement": "LD50", "setting": "[6]", "result": "2.5 to 5", "unit": "mg/kg"}]}]}
